Where two headings read alike, the source gives them in different places.

In test [1] the test system is Hedgehog pathway activation (GLi-luciferase reporter) in Shh Light II reporter cells. Briefly: Hedgehog pathway activation on Shh Light II reporter cells measured by luciferase activity. It is filed as cell-based. The conditions noted are these: Mus musculus, Shh Light II. In short, it runs like this: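 Shh Light II reporter cells carrying a hedgehog-responsive GLi-luciferase reporter were stimulated either with 500 nM SAG, a direct Smoothened agonist, or with conditioned media containing human Sonic Hedgehog (hShh). Test compounds were evaluated for blocking this pathway activation, quantified by luciferase activity. Cell viability was monitored in parallel with the Celltiter-Blue® assay.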

The test system of test [2] is Hedgehog pathway activation on 10T1/2/Smo#3 cells (C3H10T1/2 cells transfected with human Smoothened receptor). In words: Hedgehog pathway activation on 10T1/2/Smo#3 cells measured by ALP activity. It counts as cell-based. The following applies: Mus musculus, C3H 10T1/2, 10T1/2/Smo#3 cells. The procedure, abridged: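 Inhibition of alkaline phosphatase induction, read fluorometrically from 4-methylumbelliferyl phosphate conversion, gave IC50 values; CellTiter-Blue tracked viability in parallel. Cells were the human Smo-transfected 10T1/2/Smo#3 pool, stimulated by 10-20% hShh conditioned medium or the Smo agonist SAG (500 nM).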

Setting [3] is: SAG activation (500 nM SAG), read-out: Shh Light II luciferase activity (SAG activation).
Where [4] appears, read: hShh activation, read-out: Shh (IC50, inhibition of Hedgehog pathway activation).
Setting [5] is: hShh activation, read-out: Shh Light II luciferase activity (hShh activation).
The mark [6] stands for this setting: hShh activation, ALP activity, read-out: 10T1/2/Smo#3 ALP activity (hShh Activation).
Where [7] appears, read: measured by ALP activity, read-out: ALP (IC50, inhibition of Hedgehog pathway activation).

Turning to `CCOc1ccc2nc(-c3ccc(C(F)(F)F)c(S(=O)(=O)NC4CC4)c3)cn2n1` [Example 212, N-cyclopropyl-5-(6-ethoxyimidazo[1,2-b]pyridazin-2-yl)-2-(trifluoromethyl)benzenesulfonamide], the IC50 in test [1] (setting [3]) was 3000 to 30000 nM; in test [1] (setting [4]), above 10000 nM; in test [1] (setting [5]), 3000 to 30000 nM; in test [2] (setting [6]), 3000 to 30000 nM; in test [2] (setting [7]) it was 5760 nM.
For `CCOc1ccc2nc(-c3ccc(C(F)(F)F)c(S(=O)(=O)NCc4ccc(F)cc4)c3)cn2n1` [Example 213, 5-(6-ethoxyimidazo[1,2-b]pyridazin-2-yl)-N-(4-fluorobenzyl)-2-(trifluoromethyl)benzenesulfonamide], the IC50 in test [1] (setting [4]) was above 10000 nM; in test [2] (setting [7]), 3860 nM.
`CCOc1ccc2nc(-c3ccc(C(F)(F)F)c(S(=O)(=O)NC4CCCCC4)c3)cn2n1` [Example 214, N-cyclohexyl-5-(6-ethoxyimidazo[1,2-b]pyridazin-2-yl)-2-(trifluoromethyl)benzenesulfonamide]: the IC50 is above 10000 nM in test [1] (setting [4]) and 1580 nM in test [2] (setting [7]).
Regarding `CCOc1ccc2nc(-c3ccc(C(F)(F)F)c(S(=O)(=O)NCc4ccccc4)c3)cn2n1` [Example 215, N-benzyl-5-(6-ethoxyimidazo[1,2-b]pyridazin-2-yl)-2-(trifluoromethyl)benzenesulfonamide], the IC50 in test [1] (setting [4]) was above 10000 nM; in test [2] (setting [7]), 3120 nM.
Regarding `CCOc1ccc2nc(-c3ccc(C(F)(F)F)c(S(=O)(=O)NC(C)(C)C)c3)cn2n1` [Example 216, N-tert-butyl-5-(6-ethoxyimidazo[1,2-b]pyridazin-2-yl)-2-(trifluoromethyl)benzenesulfonamide], the IC50 in test [1] (setting [4]) was determined as 8570 nM; in test [2] (setting [7]), 8280 nM.
For `CCOc1ccc2nc(-c3ccc(C(F)(F)F)c(S(=O)(=O)NC)c3)cn2n1` [Example 217, 5-(6-ethoxyimidazo[1,2-b]pyridazin-2-yl)-N-methyl-2-(trifluoromethyl)benzenesulfonamide], the results for the IC50 in test [1] (setting [4]) and in test [2] (setting [7]) were 6600 nM and 535 nM, respectively.
With `CCOc1ccc2nc(-c3ccc(C(F)(F)F)c(-c4ccccn4)c3)cn2n1` [Example 218, 6-ethoxy-2-(3-(pyridin-2-yl)-4-(trifluoromethyl)phenyl)imidazo[1,2-b]pyridazine], the IC50 in test [1] (setting [3]) is 3000 to 30000 nM; in test [1] (setting [4]) it was 1720 nM; in test [1] (setting [5]), 300 to 3000 nM; in test [2] (setting [6]) it was 300 to 3000 nM; in test [2] (setting [7]) it was 2120 nM.
As to `Cc1c(NC(=O)C(C)(C)C)cccc1-c1cn2nc(-c3ccccc3F)ccc2n1` [Example 219, N-(3-(6-(2-fluorophenyl)imidazo[1,2-b]pyridazin-2-yl)-2-methylphenyl)pivalamide], the IC50 in test [1] (setting [3]) is 3000 to 30000 nM; in test [1] (setting [4]), 1260 nM; in test [1] (setting [5]), 300 to 3000 nM; in test [2] (setting [6]), 300 to 3000 nM; in test [2] (setting [7]) it was 952 nM.
On to `Cc1ccc(-c2cn3nc(-c4ccccc4F)ccc3n2)cc1NC(=O)C(C)(C)C` [Example 220, N-(5-(6-(2-fluorophenyl)imidazo[1,2-b]pyridazin-2-yl)-2-methylphenyl)pivalamide], for which the IC50 in test [1] (setting [4]) was 52 nM; in test [2] (setting [7]), 28 nM.
On to `Cc1ccc(-c2cn3nc(-c4cc(C(F)(F)F)ccc4F)ccc3n2)cc1NC(=O)C(C)(C)C` [Example 221, N-(5-(6-(2-fluoro-5-(trifluoromethyl)phenyl)imidazo[1,2-b]pyridazin-2-yl)-2-methylphenyl)pivalamide], for which the values for the IC50 in test [1] (setting [4]) and in test [2] (setting [7]) were 86 nM and 105 nM, respectively.
The like results for `CC(C)(C)C(=O)Nc1cc(-c2cn3nc(-c4cccc(F)c4)ccc3n2)ccc1C(F)(F)F` [Example 222, N-(5-(6-(3-fluorophenyl)imidazo[1,2-b]pyridazin-2-yl)-2-(trifluoromethyl)phenyl)pivalamide] were, in that order, 156 nM and 425 nM.
With `CC(C)(C)C(=O)Nc1cc(-c2cn3nc(-c4cccc(C(F)(F)F)c4)ccc3n2)ccc1C(F)(F)F` [Example 223, N-(2-(trifluoromethyl)-5-(6-(3-(trifluoromethyl)phenyl)imidazo[1,2-b]pyridazin-2-yl)phenyl)pivalamide], the IC50 turned out to be 97 nM in test [1] (setting [4]) and 289 nM in test [2] (setting [7]).
On the same counts, the results for `CC(C)(C)C(=O)Nc1cc(-c2cn3nc(-c4cc(F)ccc4F)ccc3n2)ccc1C(F)(F)F` [Example 224, N-(5-(6-(2,5-difluorophenyl)imidazo[1,2-b]pyridazin-2-yl)-2-(trifluoromethyl)phenyl)pivalamide] are 82 nM and 62 nM.
Take `CC(C)(C)C(=O)Nc1cc(-c2cn3nc(-c4ccccc4C(F)(F)F)ccc3n2)ccc1C#N` [Example 225, N-(2-cyano-5-(6-(2-(trifluoromethyl)phenyl)imidazo[1,2-b]pyridazin-2-yl)phenyl)pivalamide]: the IC50 in test [1] (setting [3]) is 3000 to 30000 nM; in test [1] (setting [4]), 48 nM; in test [1] (setting [5]) it was below 300 nM; in test [2] (setting [6]), below 300 nM; in test [2] (setting [7]), 65 nM.
With `CC(C)(C)C(=O)Nc1cc(-c2cn3nc(-c4cc(Cl)ccc4F)ccc3n2)ccc1C(F)(F)F` [Example 227, N-(5-(6-(5-chloro-2-fluorophenyl)imidazo[1,2-b]pyridazin-2-yl)-2-(trifluoromethyl)phenyl)pivalamide], the IC50 was 65 nM in test [1] (setting [4]) and 141 nM in test [2] (setting [7]).
With `CC(C)(C)C(=O)Nc1cc(-c2cn3nc(Cc4ccccc4)ccc3n2)ccc1C(F)(F)F` [Example 231, N-(5-(6-benzylimidazo[1,2-b]pyridazin-2-yl)-2-(trifluoromethyl)phenyl)pivalamide], the IC50 was 3000 to 30000 nM in test [1] (setting [3]), 905 nM in test [1] (setting [4]), 300 to 3000 nM in test [1] (setting [5]) and 300 to 3000 nM in test [2] (setting [6]).
In the case of `CC(C)(C)C(=O)Nc1cc(-c2cn3nc(N4CCOCC4)ccc3n2)ccc1C(F)(F)F` [Example 232, N-(5-(6-morpholinoimidazo[1,2-b]pyridazin-2-yl)-2-(trifluoromethyl)phenyl)pivalamide], the IC50 in test [1] (setting [4]) is 428 nM; in test [2] (setting [7]), 414 nM.
Take `CC1CCN(c2ccc3nc(-c4ccc(C(F)(F)F)c(NC(=O)C(C)(C)C)c4)cn3n2)CC1` [Example 233, N-(5-(6-(4-methylpiperidin-1-yl)imidazo[1,2-b]pyridazin-2-yl)-2-(trifluoromethyl)phenyl)pivalamide]: the IC50 in test [1] (setting [4]) stood at 329 nM; in test [2] (setting [7]), 339 nM.
On the same counts, the results for `CC(C)(C)C(=O)Nc1cc(-c2cn3nc(N4CCN(S(C)(=O)=O)CC4)ccc3n2)ccc1C(F)(F)F` [Example 234, N-(5-(6-(4-(methylsulfonyl)piperazin-1-yl)imidazo[1,2-b]pyridazin-2-yl)-2-(trifluoromethyl)phenyl)pivalamide] are 547 nM and 230 nM.
`CC(C)(C)C(=O)Nc1cc(-c2cn3nc(N4CCC(F)(F)CC4)ccc3n2)ccc1C(F)(F)F` [Example 235, N-(5-(6-(4,4-difluoropiperidin-1-yl)imidazo[1,2-b]pyridazin-2-yl)-2-(trifluoromethyl)phenyl)pivalamide]: the IC50 is 300 to 3000 nM in test [1] (setting [3]); 318 nM in test [1] (setting [4]); below 300 nM in test [1] (setting [5]); below 300 nM in test [2] (setting [6]); 271 nM in test [2] (setting [7]).

These data come from patent publication US8871767B2, “2-arylimidazo[1,2-B]pyridazine, 2-phenylimidazo[1,2-A]pyridine, and 2-phenylimidazo[1,2-A]pyrazine derivatives” (Hengrui (USA) Ltd., priority 2010, dated 2014).
